The values that follow come from patent US10023587B2, “Oxabicycloheptanes and oxabicycloheptenes, their preparation and use” (LIXTE BIOTECHNOLOGY, INC., priority 2007, dated 2018).

The subject of one series is DAOY cells. Kind of series: DAOY xenograft tumor growth in SCID mice. Type of series: in vivo. Conditions: subcutaneous in SCID mice, ip daily for 20 days (FIG. 18). How it is done:
(§1) For in vivo experiments, subcutaneously implanted tumor cells are allowed to grow over 7 days to a size of 5-7 mm. On day 7, drug administration is begun ip daily for 20 days. The maximum perpendicular diameters of the tumor masses are measured every 2 to 5 days. On the 21st day after initiation of treatment, the animals are sacrificed and dissected free of the subcutaneous tissues and measured.

Another series concerns R. arrhizus. Kind of series: Antifungal susceptibility testing (broth dilution), R. arrhizus. Type of series: cell-based, Rhizopus oryzae. Particulars: for MIC: Rhizopus arrhizus, read-out: minimum inhibitory concentration (MIC). How it is done: (§2) Anti-fungal testing was completed with a common lot for compounds 100 and 102.
(§3) A 10 mg portion of each powder was weighed out and added to 1 ml of sterile distilled water for compound 100 and DMSO for compound 102. The resulting concentration of […] was diluted to a working concentration of 640 μg/ml for each compound. All subsequent dilutions were also made using the respective diluents. Final testing concentrations ranged from 0.125-64 μg/ml.
(§4) A total of 23 isolates were tested to include 3 Candida albicans, 3 Candida glabrata, 3 Cryptococcus neoformans, 3 Aspergillus fumigatus, 3 Rhizopus oryzae, 3, Fusarium solani, 3 Pseudallescheria boydii, and 2 […] rubrum. All isolates were clinical isolates submitted to the Fungus Testing Laboratory for evaluation. Antifungal susceptibility testing was accomplished according to the methods outlined in the National Committee for Clinical Laboratory Standards, M-27A2, Reference Method for Broth Dilution Antifungal Susceptibility Testing of Yeasts; Approved Standard, and M38-A “Reference Method for Broth Dilution Antifungal Susceptibility Testing of Conidium-Forming Filamentous Fungi; Approved Standard”. This includes testing in RPMI-1640 with glutamine and without bicarbonate, an inoculum size of 0.5-2.5×10^3 for yeasts or 1-5×10^4 for moulds, and incubation at 35° C. for 24 and 48 hours.
In general terms: Broth dilution looks for growth in wells or tubes with falling amounts of substance.

The test system of the next series is OVCAR-3 cells. Kind of series: CellTiter-Glo assay, OVCAR-3. Particulars: Homo sapiens; OVCAR-3 Ovary adenoca, 72 hr; read-out: IC50 (50% Inhibition of Proliferation). Type of series: cell-based. How it is done:
(§5) MDA-MB-231, HT-29, NCI-H460, NCI-H522, NCI-H69, GXF-209, HepG2, OVAR-3, PANC-1, DU-145, LNCAP, HL-60, K-562, and MOLT-4 cell lines were either obtained from the American Type Culture Collection (ATCC; Manassas, Va.), or from the National Cancer Institute (NCI; Frederick, Md.). RPMI-1640 media, L-glutamine dipeptide (HyQ SG-200), and HEPES were obtained from Hyclone (Logan, Utah).
(§6) All cell lines were routinely cultured twice weekly in RPMI-1640 medium supplemented with 2 mM L-glutamine dipeptide, 10 mM HEPES, and 10% FBS.
(§7) The adherent cell lines MDA-MB-231, HT-29, NCI-H460, NCI-H522, GXF-209, HepG2, OVAR-3, PANC-1, DU-145, and LNCAP cells were each seeded into two 96-well plates at 2,500 cells per well in a total volume of 50 uL and incubated in a 37° C. humidified 5% CO2 cell culture incubator overnight. The suspension cell lines NCI-H69, HL-60, K-562, and MOLT-4 were each seeded into two 96-well plates at 10,000 cell per well in a total volume of 50 uL and incubated in a 37° C. humidified 5% CO2 incubator overnight.
(§8) This was followed by making 2× stocks of the final concentrations required in RPMI-1640 medium. […]
(§9) Briefly, plates were removed from the incubator and placed on the bench at room temperatures for 30 minutes. […] Luminescence was then recorded using the PerkinElmer Microbeta scintillation and luminescence counter (Trilux).
(In general: Cellular ATP, detected with luciferase, serves as a proxy for viable cell number.)

Another series deals with A. fumigatus. Kind of series: Antifungal susceptibility testing (broth dilution), A. fumigatus. Type of series: cell-based, Aspergillus fumigatus. Conditions: for MIC: Aspergillus fumigatus, read-out: minimum inhibitory concentration (MIC). On the procedure:
as §2, §3, §4

For another series, the system named is NCI-H460 cells. Kind of series: CellTiter-Glo assay, NCI-H460. Format: cell-based. Conditions: Homo sapiens; NCI-H460 Lung: large cell, 72 hr; read-out: IC50 (50% Inhibition of Proliferation). How it is done: as §5, §6, §7, §8, §9
Another series deals with GBM cell line U87. Kind of series: U87 xenograft tumor growth in SCID mice. Format: in vivo. Particulars: subcutaneous in SCID mice, ip daily for 20 days (FIG. 17). On the procedure:
as §1

Series [1] relates to medulloblastoma cell line DAOY. Briefly: Inhibition of growth of medulloblastoma cell line DAOY. Particulars: over 7 days (FIG. 16). Format: cell-based. The text has this:
For all cell culture experiments, cells are allowed to grow in the presence or absence of different concentrations of drug or in the presence of the vehicle used to dissolve the drug, PBS for compound 100 and DMSO for compound 102. Cell counts are done in triplicate on day 3 and day 7 and inhibition of growth is expressed as a percentage of the number of cells present in the experimental well divided by the number of cells in a control well.

Series [2] concerns 23 clinical fungal isolates. Kind of series: Antifungal susceptibility testing, whole panel of 23 isolates. Type of series: cell-based. Particulars: at the levels tested, 0.125-64 μg/ml. How it is done: as §2, §3, §4
Another series can be described thus: Stability at acid pH. Format: physicochemical.

Like-named read-outs stand apart in the source and are kept apart here.

Regarding `CC(C)(C)OC(=O)N1CCN(C(=O)C2C(C(=O)O)[C@H]3CC[C@@H]2O3)CC1` (stereo in doubt) [Compound 102, 4-(3-Carboxy-7oxa-bicyclo[2.2.1]heptane-2-carbonyl)piperazine-1-carboxylic acid tert-butyl ester], in the series with DAOY cells, the “Effect on DAOY xenograft tumor growth (in words)” value is “inhibit the proliferation”. Besides, the MIC in the series on R. arrhizus (isolate 07-1870, 24 Hours) was > 64 µg/mL; in the series with R. arrhizus (isolate 07-1870, 48 Hours), > 64 µg/mL; with A. fumigatus (isolate 05-388, 24 Hours) it was > 64 µg/mL; in the series with A. fumigatus (isolate 05-388, 48 Hours) it was > 64 µg/mL. The “minimum inhibitory concentration (MIC)” value with R. arrhizus (isolate 07-2044, 24 Hours) is >64 µg/mL; in the series on R. arrhizus (isolate 07-2044, 48 Hours), >64 µg/mL; in the series on R. arrhizus (isolate 07-2078, 24 Hours), >64 µg/mL; in the series on R. arrhizus (isolate 07-2078, 48 Hours) it was >64 µg/mL; in the series on A. fumigatus (isolate 06-4126, 24 Hours), >64 µg/mL; in the series on A. fumigatus (isolate 06-4126, 48 Hours), >64 µg/mL. For the same compound, the “minimum inhibitory concentration (MIC)” value in the series on A. fumigatus (isolate 07-2039, 24 Hours) is >64 µg/mL; in the series with A. fumigatus (isolate 07-2039, 48 Hours), >64 µg/mL. The IC50 in the series with OVCAR-3 cells stood at 5.1 µM; in the series with NCI-H460 cells, 17.5 µM.

In the case of `CN1CCN(C(=O)C2C(C(=O)O)[C@H]3CC[C@@H]2O3)CC1` (stereo partly shown) [Compound 100, Endothall 4-Methylpiperazine Monoamide], in the series with DAOY cells, the “Effect on DAOY xenograft tumor growth (in words)” value is recorded as “inhibit the proliferation”. Further, the “Effect on U87 xenograft tumor growth (in words)” value with GBM cell line U87 was “supresses the growth”. Also, the MIC in the series with R. arrhizus (24 h), in the series on R. arrhizus (48 h), in the series on A. fumigatus (24 h) and in the series with A. fumigatus (48 h) was > 64 µg/mL each time. The “minimum inhibitory concentration (MIC)” value was >64 µg/mL in the series with R. arrhizus (isolate 07-2044, 24 Hours); >64 µg/mL in the series with R. arrhizus (isolate 07-2044, 48 Hours); >64 µg/mL with R. arrhizus (isolate 07-2078, 24 Hours); >64 µg/mL with R. arrhizus (isolate 07-2078, 48 Hours); >64 µg/mL in the series on A. fumigatus (isolate 06-4126, 24 Hours); >64 µg/mL with A. fumigatus (isolate 06-4126, 48 Hours). The “minimum inhibitory concentration (MIC)” value with A. fumigatus (isolate 07-2039, 24 Hours) is >64 µg/mL; in the series on A. fumigatus (isolate 07-2039, 48 Hours), >64 µg/mL. For the same compound, the IC50 in the series with OVCAR-3 cells was found to be 2.9 µM; in the series on NCI-H460 cells, 24.3 µM. Moreover, the “Inhibition of growth of DAOY (in words)” value in series [1] is reported as “dose dependent inhibition”. Also, in series [2], the “Antifungal activity, all isolates (in words)” value is on record as “no activity”. For the same compound, in the series “Stability at acid pH”, the “Stability at acid pH (in words)” value is listed as “stable at acid pH”.
